Experimental data reported in the NIST ThermoML archive (doi:10.1021/acs.jced.8b00358).

Columns and labels:
[1] = 83 kPa, Liquid; for speed of sound: Frequency=3 MHz, Single path-length method; for mass density: Vibrating tube method
[2] = molar heat capacity at constant pressure; conditions: 83 kPa, Liquid, DSC

CCCCCCC(=O)OCC(COC(=O)CCCCCC)(COC(=O)CCCCCC)COC(=O)CCCCCC [pentaerythritol tetraheptanoate]
Conditions | mass density [kg/m3] | molar heat capacity at constant pressure [J/K/mol] | speed of sound [m/s]
[1], 278.15 K | 989.09 | – | 1435
[1], 283.15 K | 985.27 | – | 1417.7
[1], 288.15 K | 981.48 | – | 1400.7
[1], 293.15 K | 977.69 | – | 1383.8
[1], 298.15 K | 973.91 | – | 1367
[1], 303.15 K | 970.14 | – | 1350.3
[1], 308.15 K | 966.38 | – | 1333.9
[1], 313.15 K | 962.62 | – | 1317.8
[1], 318.15 K | 958.87 | – | 1301.9
[1], 323.15 K | 955.13 | – | 1286.1
[1], 328.15 K | 951.39 | – | 1270.4
[1], 333.15 K | 947.66 | – | 1254.9
[1], 338.15 K | 943.92 | – | 1239.6
[1], 343.15 K | 940.2 | – | 1224.5
[2], 293.14 K | – | 1059.1 | –
[2], 294.14 K | – | 1060.3 | –
[2], 295.14 K | – | 1062 | –
[2], 296.14 K | – | 1063.8 | –
[2], 297.14 K | – | 1065.6 | –
[2], 298.14 K | – | 1066.7 | –
[2], 299.14 K | – | 1068.5 | –
[2], 300.14 K | – | 1070.2 | –
[2], 301.14 K | – | 1071.4 | –
[2], 302.14 K | – | 1073.2 | –
[2], 303.14 K | – | 1074.9 | –
[2], 304.14 K | – | 1076.1 | –
[2], 305.14 K | – | 1077.8 | –
[2], 306.14 K | – | 1079 | –
[2], 307.14 K | – | 1080.8 | –
[2], 308.14 K | – | 1082.5 | –
[2], 309.14 K | – | 1083.7 | –
[2], 310.14 K | – | 1085.4 | –
[2], 311.14 K | – | 1086.6 | –
[2], 312.14 K | – | 1088.4 | –
[2], 313.14 K | – | 1090.1 | –
[2], 314.14 K | – | 1091.9 | –
[2], 315.14 K | – | 1093 | –
[2], 316.14 K | – | 1094.8 | –
[2], 317.14 K | – | 1096.5 | –
[2], 318.14 K | – | 1098.3 | –
[2], 319.14 K | – | 1099.5 | –
[2], 320.14 K | – | 1101.2 | –
[2], 321.14 K | – | 1103 | –
[2], 322.13 K | – | 1104.1 | –
[2], 323.14 K | – | 1105.9 | –
[2], 324.14 K | – | 1107.7 | –
[2], 325.14 K | – | 1108.8 | –
[2], 326.14 K | – | 1110.6 | –
[2], 327.14 K | – | 1112.3 | –
[2], 328.14 K | – | 1114.1 | –
[2], 329.14 K | – | 1115.8 | –
[2], 330.14 K | – | 1117 | –
[2], 331.14 K | – | 1118.8 | –
[2], 332.14 K | – | 1120.5 | –
[2], 333.14 K | – | 1121.7 | –
[2], 334.13 K | – | 1123.4 | –
[2], 335.14 K | – | 1125.2 | –
[2], 336.14 K | – | 1127 | –
[2], 337.14 K | – | 1128.1 | –
[2], 338.14 K | – | 1129.9 | –
[2], 339.14 K | – | 1131.6 | –
[2], 340.14 K | – | 1133.4 | –
[2], 341.13 K | – | 1134.6 | –
[2], 342.14 K | – | 1136.3 | –
[2], 343.14 K | – | 1138.1 | –
[2], 344.14 K | – | 1139.8 | –
[2], 345.13 K | – | 1141.6 | –
[2], 346.14 K | – | 1143.3 | –
[2], 347.14 K | – | 1145.1 | –
[2], 348.14 K | – | 1146.3 | –
[2], 349.14 K | – | 1148 | –
[2], 350.14 K | – | 1149.8 | –
[2], 351.14 K | – | 1151.5 | –
[2], 352.14 K | – | 1153.3 | –
[2], 353.14 K | – | 1154.4 | –
[2], 354.14 K | – | 1156.2 | –
[2], 355.14 K | – | 1158 | –
[2], 356.14 K | – | 1159.7 | –
[2], 357.14 K | – | 1160.9 | –
[2], 358.14 K | – | 1162.6 | –
[2], 359.14 K | – | 1164.4 | –
[2], 360.14 K | – | 1166.1 | –
[2], 361.14 K | – | 1167.9 | –
[2], 362.14 K | – | 1169.1 | –
[2], 363.14 K | – | 1170.8 | –
[2], 364.14 K | – | 1172.6 | –
[2], 365.14 K | – | 1174.3 | –
[2], 366.14 K | – | 1176.1 | –
[2], 367.14 K | – | 1177.3 | –
[2], 368.14 K | – | 1179 | –
[2], 369.14 K | – | 1180.8 | –
[2], 370.14 K | – | 1182.5 | –
[2], 371.14 K | – | 1184.3 | –
[2], 372.14 K | – | 1185.4 | –
[2], 373.14 K | – | 1187.2 | –
[2], 374.14 K | – | 1188.9 | –
[2], 375.14 K | – | 1190.7 | –
[2], 376.14 K | – | 1192.5 | –
[2], 378.14 K | – | 1196 | –
[2], 379.14 K | – | 1197.7 | –
[2], 380.14 K | – | 1198.9 | –
[2], 381.14 K | – | 1200.6 | –
[2], 382.14 K | – | 1202.4 | –
[2], 383.14 K | – | 1204.2 | –
[2], 384.14 K | – | 1205.9 | –
[2], 385.14 K | – | 1207.7 | –
[2], 386.14 K | – | 1209.4 | –
[2], 387.14 K | – | 1211.2 | –
[2], 388.14 K | – | 1212.9 | –
[2], 389.14 K | – | 1214.1 | –
[2], 390.14 K | – | 1215.9 | –
[2], 391.14 K | – | 1217.6 | –
[2], 392.14 K | – | 1219.4 | –
[2], 393.14 K | – | 1220.5 | –
[2], 394.14 K | – | 1222.3 | –
[2], 395.14 K | – | 1224 | –
[2], 396.14 K | – | 1225.2 | –
[2], 397.14 K | – | 1227 | –
[2], 398.14 K | – | 1228.7 | –
[2], 399.14 K | – | 1230.5 | –
[2], 400.14 K | – | 1232.2 | –
[2], 401.14 K | – | 1234 | –
[2], 402.14 K | – | 1235.7 | –
[2], 403.14 K | – | 1236.9 | –
[2], 404.14 K | – | 1238.7 | –
[2], 405.14 K | – | 1240.4 | –
[2], 406.14 K | – | 1242.2 | –
[2], 407.14 K | – | 1243.9 | –
[2], 408.14 K | – | 1245.7 | –
[2], 409.14 K | – | 1247.4 | –
[2], 410.14 K | – | 1248.6 | –
[2], 411.14 K | – | 1250.4 | –
[2], 412.13 K | – | 1252.1 | –
[2], 413.14 K | – | 1253.9 | –
[2], 414.13 K | – | 1255.6 | –
[2], 415.14 K | – | 1257.4 | –
[2], 416.14 K | – | 1258.5 | –
[2], 417.14 K | – | 1260.3 | –
